Bounds are passed on as bounds.

Data on 18 molecules can be found in patent US20200179428A1, “CYCLIC PHOSPHATE SUBSTITUTED NUCLEOSIDE DERIVATIVES AND METHODS OF USE THEREOF FOR THE TREATMENT OF VIRAL DISEASES” (priority 2016, published 2020).

One data set deals with replicon cells (1b-Con1). The experiment in a line: Replicon activity assay (replicon RNA level by real-time RT-PCR, Taqman). It counts as cell-based. Conditions: HCV replicon genotype 1b; read-out: EC50 (1b) Range. Summed up: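 HCV 1b-Con1 replicon cells treated 3 days with 10-point twofold serial dilutions in triplicate (0.5% DMSO, 10% FBS); replicon RNA quantified by Taqman real-time RT-PCR normalised to GAPDH, EC50 derived. Cytotoxicity by MTS read-out at day 3 on identically treated cells.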
(In general: Replicon systems follow genome replication, usually without infectious particles.)
Broadly, the EC50 is the concentration that produces a half-maximal response. With `C#C[C@]1(C)[C@@H]2OP(=O)(OCC(C)CC(=O)OC(C)C)OC[C@H]2O[C@H]1n1ccc(=O)[nH]c1=O` (single isomer, unassigned) [Compound 6A2], the EC50 is more than 10 µM.
On the same count and under the same terms, in the case of `CC(CCOP1(=O)OC[C@H]2O[C@@H](n3ccc(=O)[nH]c3=O)[C@](C)(N)[C@@H]2O1)C(=O)OC1CCCC1` (single isomer, unassigned) [Compound 14B1] it was 1 to 10 µM; in that of `CC(C)OC(=O)C(CCOP1(=O)OC[C@H]2O[C@@H](n3ccc(=O)[nH]c3=O)[C@](C)(Cl)[C@@H]2O1)C(=O)OC(C)C` (stereo partly drawn) [Compound 38B], not above 0.25 µM.
The same measure, in the same setting: in the case of `CC(CCOP1(=O)OC[C@H]2O[C@@H](n3ccc(=O)[nH]c3=O)[C@](C)(N)[C@@H]2O1)C(=O)OC1CCCC1` (single isomer, unassigned) [Compound 14A2] it was more than 10 µM; in that of `C#C[C@@]1(O)[C@@H]2OP(=O)(OCC[C@H](C)C(=O)OC(C)C)OC[C@H]2O[C@H]1n1ccc(=O)[nH]c1=O` (single isomer, unassigned) [Compound 7B2], 1 to 10 µM.
For the molecule `C#C[C@]1(C)[C@@H]2OP(=O)(OCC(C)CC(=O)OC(C)C)OC[C@H]2O[C@H]1n1ccc(=O)[nH]c1=O` (single isomer, unassigned) [Compound 6A1], the EC50 was more than 10 µM.
On to `CO[C@H](CCOP1(=O)OC[C@H]2O[C@@H](n3ccc(=O)[nH]c3=O)[C@](C)(Cl)[C@@H]2O1)C(=O)OC(C)C` (stereo partly drawn) [Compound 37B], for which the EC50 is not above 0.25 µM.
With `C#C[C@@]1(O)[C@@H]2OP(=O)(OCCC(C)C(=O)OC3CCCC3)OC[C@H]2O[C@H]1n1ccc(=O)[nH]c1=O` (single isomer, unassigned) [Compound 8B], the EC50 was not above 0.25 µM.
Still for that read-out and setting: under `CC(C)OC(=O)C(C)CCOP1(=O)OC[C@H]2O[C@@H](n3ccc(=O)[nH]c3=O)[C@](C)(N)[C@@H]2O1` (single isomer, unassigned) [Compound 10A2] stands more than 10 µM; under `C#C[C@]1(C)[C@@H]2OP(=O)(OCC(C)CC(=O)OC(C)C)OC[C@H]2O[C@H]1n1ccc(=O)[nH]c1=O` (single isomer, unassigned) [Compound 6B1], 1 to 10 µM.
Still for that read-out and setting: under `C#C[C@]1(C)[C@@H]2OP(=O)(OCC(C)CC(=O)OC3CCCC3)OC[C@H]2O[C@H]1n1ccc(=O)[nH]c1=O` (single isomer, unassigned) [Compound 3B] stands not above 0.25 µM.
As for `CC(C)OC(=O)C(C)CCOP1(=O)OC[C@H]2O[C@@H](n3ccc(=O)[nH]c3=O)[C@](C)(N)[C@@H]2O1` (single isomer, unassigned) [Compound 10B], the EC50 is more than 10 µM.
Same read-out and setting: in the case of `CCOC(=O)C(C)CCOP1(=O)OC[C@H]2O[C@@H](n3ccc(=O)[nH]c3=O)[C@](C)(N)[C@@H]2O1` (single isomer, unassigned) [Compound 5A] it was 1 to 10 µM; in that of `CCOC(=O)C(C)CCOP1(=O)OC[C@H]2O[C@@H](n3ccc(=O)[nH]c3=O)[C@](C)(N)[C@@H]2O1` (single isomer, unassigned) [Compound 5B], more than 10 µM.

The same data set, now with this note: Hepatitis C virus, HCV replicon genotype 1b; read-out: EC50 (1b) Range.
On to `C#C[C@]1(C)[C@@H]2O[P@](=O)(OCC[C@@H](OC)C(=O)OC(C)C)OC[C@H]2O[C@H]1n1ccc(=O)[nH]c1=O` [Compound 57B], for which the EC50 was in the range of 1 to 10 µM.
Turning to `CCC(CCO[P@@]1(=O)OC[C@H]2O[C@@H](n3ccc(=O)[nH]c3=O)[C@](C)(N)[C@@H]2O1)C(=O)OC(C)C` (stereo partly drawn) [Compound 23A], the EC50 is more than 10 µM.
As for `C#C[C@]1(C)[C@@H]2O[P@](=O)(OCC[C@H](OC)C(=O)OC(C)C)OC[C@H]2O[C@H]1n1ccc(=O)[nH]c1=O` [Compound 56B], the EC50 lay within 0.25 to 1 µM.
As to `CC(C)OC(=O)C[C@H](F)CO[P@@]1(=O)OC[C@H]2O[C@@H](n3ccc(=O)[nH]c3=O)[C@](C)(N)[C@@H]2O1` [Compound 65A], the EC50 was more than 10 µM.

The test system of the next data set is replicon cells. The experiment in a line: Cytotoxicity MTS assay (CellTiter 96 Aqueous One Solution) in replicon cells. It counts as cell-based. To be noted: EDU; read-out: CC50 (EDU) Range.
Broadly, the CC50 is the concentration that lowers cell viability or growth by half. Take `C#C[C@]1(C)[C@@H]2OP(=O)(OCC(C)CC(=O)OC(C)C)OC[C@H]2O[C@H]1n1ccc(=O)[nH]c1=O` (single isomer, unassigned) [Compound 6A2]: the CC50 is more than 50 µM.
Consider `CC(CCOP1(=O)OC[C@H]2O[C@@H](n3ccc(=O)[nH]c3=O)[C@](C)(N)[C@@H]2O1)C(=O)OC1CCCC1` (single isomer, unassigned) [Compound 14B1], for which the CC50 was more than 50 µM.
`CC(C)OC(=O)C(CCOP1(=O)OC[C@H]2O[C@@H](n3ccc(=O)[nH]c3=O)[C@](C)(Cl)[C@@H]2O1)C(=O)OC(C)C` (stereo partly drawn) [Compound 38B]: the CC50 was more than 50 µM.
Same read-out and setting: under `CC(CCOP1(=O)OC[C@H]2O[C@@H](n3ccc(=O)[nH]c3=O)[C@](C)(N)[C@@H]2O1)C(=O)OC1CCCC1` (single isomer, unassigned) [Compound 14A2] stands more than 50 µM; under `C#C[C@@]1(O)[C@@H]2OP(=O)(OCC[C@H](C)C(=O)OC(C)C)OC[C@H]2O[C@H]1n1ccc(=O)[nH]c1=O` (single isomer, unassigned) [Compound 7B2], more than 50 µM.
As for `C#C[C@]1(C)[C@@H]2OP(=O)(OCC(C)CC(=O)OC(C)C)OC[C@H]2O[C@H]1n1ccc(=O)[nH]c1=O` (single isomer, unassigned) [Compound 6A1], the CC50 is more than 50 µM.
On the same count and under the same terms, in the case of `CO[C@H](CCOP1(=O)OC[C@H]2O[C@@H](n3ccc(=O)[nH]c3=O)[C@](C)(Cl)[C@@H]2O1)C(=O)OC(C)C` (stereo partly drawn) [Compound 37B] it was more than 50 µM.
With `C#C[C@@]1(O)[C@@H]2OP(=O)(OCCC(C)C(=O)OC3CCCC3)OC[C@H]2O[C@H]1n1ccc(=O)[nH]c1=O` (single isomer, unassigned) [Compound 8B], the CC50 was more than 50 µM.
As for `CC(C)OC(=O)C(C)CCOP1(=O)OC[C@H]2O[C@@H](n3ccc(=O)[nH]c3=O)[C@](C)(N)[C@@H]2O1` (single isomer, unassigned) [Compound 10A2], the CC50 was more than 50 µM.
The same measure, in the same setting: in the case of `C#C[C@]1(C)[C@@H]2OP(=O)(OCC(C)CC(=O)OC(C)C)OC[C@H]2O[C@H]1n1ccc(=O)[nH]c1=O` (single isomer, unassigned) [Compound 6B1] it was more than 50 µM.
The same measure, in the same setting: in the case of `C#C[C@]1(C)[C@@H]2OP(=O)(OCC(C)CC(=O)OC3CCCC3)OC[C@H]2O[C@H]1n1ccc(=O)[nH]c1=O` (single isomer, unassigned) [Compound 3B] it was more than 50 µM; in that of `CC(C)OC(=O)C(C)CCOP1(=O)OC[C@H]2O[C@@H](n3ccc(=O)[nH]c3=O)[C@](C)(N)[C@@H]2O1` (single isomer, unassigned) [Compound 10B], more than 50 µM.
Same read-out and setting: in the case of `CCOC(=O)C(C)CCOP1(=O)OC[C@H]2O[C@@H](n3ccc(=O)[nH]c3=O)[C@](C)(N)[C@@H]2O1` (single isomer, unassigned) [Compound 5B] it was more than 50 µM.

Tested on in a further data set: not listed separately
Described as above. Format: cell-based. To be noted: HCV replicon cells (1b-Con1); EDU; read-out: CC50 (EDU) Range.
For `C#C[C@]1(C)[C@@H]2O[P@](=O)(OCC[C@@H](OC)C(=O)OC(C)C)OC[C@H]2O[C@H]1n1ccc(=O)[nH]c1=O` [Compound 57B], the CC50 at 3 days is more than 50 µM.
`CCC(CCO[P@@]1(=O)OC[C@H]2O[C@@H](n3ccc(=O)[nH]c3=O)[C@](C)(N)[C@@H]2O1)C(=O)OC(C)C` (stereo partly drawn) [Compound 23A]: the CC50 at 3 days is more than 50 µM.
On the same count and under the same terms, under `CCOC(=O)C(C)CCOP1(=O)OC[C@H]2O[C@@H](n3ccc(=O)[nH]c3=O)[C@](C)(N)[C@@H]2O1` (single isomer, unassigned) [Compound 5A] stands more than 50 µM; under `C#C[C@]1(C)[C@@H]2O[P@](=O)(OCC[C@H](OC)C(=O)OC(C)C)OC[C@H]2O[C@H]1n1ccc(=O)[nH]c1=O` [Compound 56B], more than 50 µM.
As for `CC(C)OC(=O)C[C@H](F)CO[P@@]1(=O)OC[C@H]2O[C@@H](n3ccc(=O)[nH]c3=O)[C@](C)(N)[C@@H]2O1` [Compound 65A], the CC50 at 3 days was more than 50 µM.
